Results published in paper PMC11267380, “USP25 Elevates SHLD2‐Mediated DNA Double‐Strand Break Repair and Regulates Chemoresponse in Cancer” (Advanced Science, 2024).

How the values were obtained:
Assay type in all cases: cell-based
[1] = system: SW480 cells; test: CCK8 survival assay, TRIM25 knockdown SW480 cells; details: ctrl vs USP25-depleted SW480, 5-Fu (0, 0.1, 0.5, 1, 3 µM), 72 h
From the text: (§1) Figure 6 TRIM25 ubiquitinates and inactivates USP25. a) The mRNA expression levels of USP25 in human normal colon tissue samples (n = 41) and colorectal adenocarcinoma tissue samples (n = 286 COAD patients) from the Ualcan database. b) The mRNA expression level of USP25 in human colon cell lines and colon carcinoma cell lines through qPCR. c) The protein expression level of USP25 in human colon cell lines and colon carcinoma cell lines through western blot. d) Tissue microarray with representative IHC images showing USP25 protein expression in COAD tumors and adjacent tissues. […] Cell lysates were subjected to HA resin, and the immunoprecipitants were subsequently blotted using the indicated antibodies. f) The protein expression levels of USP25 were evaluated in HEK293T cells transfected with MYC‐TRIM25 or Flag‐HECTD3. g) The effect of cycloheximide (CHX) treatment on USP25 expression levels was analyzed in HEK293T cells transfected with TRIM25 for an indicated duration of time. h) In vivo ubiquitination assays were performed in control and TRIM25 knockdown cells, transfected with indicated plasmids, and treated with MG132 for 4 h before harvesting. […]
(§2) For long‐term proliferation, cells were seeded in triplicate in each well of 96‐well plates at a density of 1000 cells per well. […] The absorbance was measured at 450 nm using the SpectraMax M5 reader (Molecular Devices).

[2] = system: SW620 cells; test: CCK8 survival assay, SW620 cells overexpressing TRIM25; details: SW620 ctrl, 5-Fu (0, 0.1, 0.5, 1, 3 µM), 72 h
From the text: as §1, §2

[3] = system: RKO cells; test: CCK8 survival assay, control, USP25 knockdown and SHLD2-depleted RKO cells; details: 5-Fu (0, 0.1, 0.5, 1, 3 µM) or cisplatin (0, 0.1, 0.5, 1, 2, 5 µM)
Description: For long‐term proliferation, cells were seeded in triplicate in each well of 96‐well plates at a density of 1000 cells per well. After 24 h of culture, the cells were treated with the indicated doses of regents or peptides and incubated at 37 °C for 72 h. Subsequently, the medium was changed to a fresh medium containing cell counting kit‐8 solution (Dojindo, CK04), and the cells were placed in the incubator for an additional 1–2 h. The absorbance was measured at 450 nm using the SpectraMax M5 reader (Molecular Devices).
a) HEK293T cells stably expressing control or USP25 shRNA were untreated and treaded with etopside at the indicated time point. Cells were lysed and lysates was performed with the indicated antibodies. b-c) Representative foci images and quantification of RPA32 (b) and RAD51 (c) were obtained in U2OS cells stably expressing control or USP25 shRNA with or without IR treatment (2Gy). n>80 in each group. d) USP25 was knocked down in ER-AsiSI U2OS cells by shRNA, and cell lysates were analyzed using the indicated antibodies. e) Schematic representation of Taqman qPCR primer design for measurement of DSB% at AsiSI sites located on chromosome1(Chr.1). The primer pairs of DNA resection are across BamHI restriction sites are marked by red arrows. ER-AsiSI U2OS cells stably expressing control and USP25 shRNA were treated with 300 nM 4- hydroxytamoxifen (4-OHT) for 4 h or mock treated and genomic DNA was then extracted and digested with BamHI overnight. The percentages of ssDNA at various distances (364nt, 1754nt and 3564nt) were measured by qPCR. f-h) Control and USP25 knockdown RKO cells transfected short interfering RNAs (siRNA) against SHLD2 were subjected to survival assays for CCK8 assay in response to IR (0, 1,1.5,2,2.5,3Gy), 5-Fu (0, 0.1,0.5,1,3µM) or cisplatin(0, 0.1,0.5,1,2,5µM). Statistical analysis was performed using two-way ANOVA followed by a Turkey’s multiple comparison test (b,c,e,f,g,h) .

SMILES: O=c1[nH]cc(F)c(=O)[nH]1 [5‐Fu, 5‐fluorouracil]
- resistance by TRIM25 knockdown [1]: resistant to 5‐Fu treatment in ctrl cells but not USP25‐depleted SW480 cells
- sensitization by TRIM25 overexpression [2]: sensitize to 5‐Fu treatment in ctrl SW620 cells
- sensitization by USP25 knockdown ([3]; Figure S2f-h): sensitized cells to IR, 5‐Fu, and cisplatin treatment
- sensitization by USP25 knockdown in SHLD2-depleted cells ([3]; SHLD2 siRNA): didn't further lead cells to sensitize to these treatments
